Measurements taken from patent US12454525B2, “IL4I1 inhibitors and methods of use” (Merck Sharp & Dohme LLC, priority 2020, dated 2025).

biological target: T1, recombinant IL4I1 (Homo sapiens, UniProt Q96RQ9); test: IL4I1 Enzymatic Assay (Amplex Red/HRP coupled H2O2 detection); type: biochemical; conditions: 240 min; four-hour pre-incubation with compound; 1 nM IL4I1, 1 mM each Phe/Tyr/Trp; ten-point titration; fluorescence readout; read-out: Potency EC50 (nM) (240 min)
T1 construct: purchased R&D Systems 5684-AO-020
T1 sequence (Q96RQ9 22-567): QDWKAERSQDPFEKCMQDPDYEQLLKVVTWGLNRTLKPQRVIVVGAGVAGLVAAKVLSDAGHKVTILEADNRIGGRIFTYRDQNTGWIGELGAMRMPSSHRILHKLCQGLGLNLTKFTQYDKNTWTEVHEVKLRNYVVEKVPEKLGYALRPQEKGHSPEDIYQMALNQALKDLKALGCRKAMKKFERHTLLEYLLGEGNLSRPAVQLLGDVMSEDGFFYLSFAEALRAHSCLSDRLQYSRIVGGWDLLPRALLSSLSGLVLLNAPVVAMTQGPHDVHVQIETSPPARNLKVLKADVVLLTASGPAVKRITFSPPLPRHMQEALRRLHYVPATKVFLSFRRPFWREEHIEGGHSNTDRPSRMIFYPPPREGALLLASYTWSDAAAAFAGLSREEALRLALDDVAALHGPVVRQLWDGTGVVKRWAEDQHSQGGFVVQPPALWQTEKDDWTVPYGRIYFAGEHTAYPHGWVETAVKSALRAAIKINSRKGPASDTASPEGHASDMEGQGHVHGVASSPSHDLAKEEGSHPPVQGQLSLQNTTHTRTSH
Procedure, shortened: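 Recombinant IL4I1 at 1 nM final, pre-incubated 4 h with compound (0.1% DMSO) at ambient temperature in 50 mM Hepes pH 7.0, 0.005% Tween20; 1 mM each Phe/Tyr/Trp, 120 min, H2O2 read via Amplex Red/HRP fluorescence (544/590 nm). EC50 from ten-point four-parameter fit.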

First: N#Cc1n[nH]c2ccc(Cn3c(=O)[nH]c4ccccc43)cc12 [Example 42, 5-((2-oxo-2,3-dihydro-1H-benzo[d]imidazol-1-yl)methyl)-1H-indazole-3-carbonitrile]
Second: O=c1[nH]c2ccccc2n1Cc1ccc2c(c1)CCN2 [Example 52, 1-(indolin-5-ylmethyl)-1,3-dihydro-2H-benzo[d]imidazol-2-one]
The EC50 of the first is 9-fold lower: 2 nM for the first, 18 nM for the second.

First: Cc1cc(C)cc(Cn2c(=O)[nH]c3ccccc32)c1 [Example 72, 1-[(3,5-dimethylphenyl)methyl]-1,3-dihydro-2H-benzimidazol-2-one]
Second: CC(C)(C)c1ccnc(Cn2c(=O)[nH]c3ccccc32)c1 [Example 63, 1-[(4-tert-butylpyridin-2-yl)methyl]-1,3-dihydro-2H-benzimidazol-2-one]
The EC50 of the first is 760-fold lower: 6 nM for the first, 4530 nM for the second. The first is the more potent here.

First: O=C(NCC(F)(F)F)c1cccc(Cn2c(=O)[nH]c3ccccc32)c1 [Example 101, 3-((2-oxo-2,3-dihydro-1H-benzo[d]imidazol-1-yl)methyl)-N-(2,2,2-trifluoroethyl)benzamide]
Second: COc1cc(Cn2c(=O)[nH]c3ccccc32)ccc1CNC(C)=O [Example 7, N-({2-methoxy-4-[(2-oxo-2,3-dihydro-1H-benzimidazol-1-yl)methyl]phenyl}methyl)acetamide]
The EC50 of the first is 11-fold higher: 90 nM for the first, 8 nM for the second.

Going from `O=C1CCCN1Cc1ccc(Cn2c(=O)[nH]c3cc(F)ccc32)cc1` (single isomer, unassigned) [Example 85, 5-fluoro-1-(4-((2-oxopyrrolidin-1-yl)methyl)benzyl)-1,3-dihydro-2H-benzo[d]imidazol-2-one] to `O=C1CCCN1Cc1ccc(Cn2c(=O)[nH]c3ccccc32)cc1F` [Example 9, 1-({3-fluoro-4-[(2-oxopyrrolidin-1-yl)methyl]phenyl}methyl)-1,3-dihydro-2H-benzimidazol-2-one], the EC50 falls from 389 nM to 16 nM (24-fold).

Compared with `CC(c1ccccc1)n1c(=O)[nH]c2ccccc21` (centres unmarked) [Example 87, 1-(1-phenylethyl)-1,3-dihydro-2H-benzo[d]imidazol-2-one], `CC1NC(=O)c2cc(Cn3c(=O)[nH]c4ccccc43)ccc21` (centres unmarked) [Example 33, 1-[(1-methyl-3-oxo-2,3-dihydro-1H-isoindol-5-yl)methyl]-1,3-dihydro-2H-benzimidazol-2-one] is 590-fold lower in EC50: 8900 nM for the first, 15 nM for the second.

First: O=c1[nH]c2ccccc2n1CCC1CCCO1 (centres unmarked) [Example 60, 1-[2-(oxolan-2-yl)ethyl]-1,3-dihydro-2H-benzimidazol-2-one]
Second: N#CC1(Cc2ncc(Cn3c(=O)[nH]c4ccccc43)cc2Cl)CCC1 [Example 79, 1-((3-chloro-5-((2-oxo-2,3-dihydro-1H-benzo[d]imidazol-1-yl)methyl)pyridin-2-yl)methyl)cyclobutane-1-carbonitrile]
The EC50 of the first is 77-fold higher: 8660 nM for the first, 113 nM for the second. The second is the more potent here.

`CC(=O)NC(C)(C)c1ccc(Cn2c(=O)[nH]c3ccccc32)cc1` [Example 51, N-(2-{4-[(2-oxo-2,3-dihydro-1H-benzimidazol-1-yl)methyl]phenyl}propan-2-yl)acetamide] and `COc1ccccc1Cn1c(=O)[nH]c2ccc(C)cc21` [Example 86, 1-(2-methoxybenzyl)-6-methyl-1,3-dihydro-2H-benzo[d]imidazol-2-one] are within 1.5-fold of each other in EC50: 54 nM for the first, 74 nM for the second.

`CCCS(=O)(=O)NCc1ccc(Cn2c(=O)[nH]c3ccc(F)cc32)cc1` [Example 95, N-(4-((6-fluoro-2-oxo-2,3-dihydro-1H-benzo[d]imidazol-1-yl)methyl)benzyl)propane-1-sulfonamide] and `CS(=O)(=O)NCc1sc(Cn2c(=O)[nH]c3ccccc32)cc1Cl` [Example 39, N-((3-chloro-5-((2-oxo-2,3-dihydro-1H-benzo[d]imidazol-1-yl)methyl)thiophen-2-yl)methyl)methanesulfonamide] are within 1.5-fold of each other in EC50: 6 nM for the first, 5 nM for the second.

`Cn1c(=O)n(Cc2cccc(OC(F)(F)F)c2)c2ccccc21` [Example 89, 1-methyl-3-(3-(trifluoromethoxy)benzyl)-1,3-dihydro-2H-benzo[d]imidazol-2-one] gave an EC50 of 29 nM.
